From patent EP1219608A1, “PYRIMIDINE DERIVATIVES, PROCESS FOR PREPARING THE DERIVATIVES AND DRUGS CONTAINING THE SAME AS THE ACTIVE INGREDIENT” (ONO PHARMACEUTICAL CO., LTD., priority 1999, dated 2001)

Target: T1, human sputum elastase (HSE) (Homo sapiens, UniProt P08246)
T1 construct: human sputum elastase (HSE); from tissue; host or cells: human sputum (from the enzyme's name only)
T1 sequence (P08246 30-247 limits assumed): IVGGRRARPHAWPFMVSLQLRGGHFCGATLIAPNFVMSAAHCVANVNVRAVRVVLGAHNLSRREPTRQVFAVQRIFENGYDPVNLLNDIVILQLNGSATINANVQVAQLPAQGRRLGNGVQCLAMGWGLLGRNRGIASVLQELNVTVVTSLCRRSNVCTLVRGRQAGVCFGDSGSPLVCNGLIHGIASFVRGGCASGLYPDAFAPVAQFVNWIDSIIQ
Assay: Inhibitory effects on human sputum elastase
Assay type: biochemical
Conditions: pre-incubated at 37°C for 20 minutes; substrate MeO-Suc-Ala-Ala-Pro-Val-pNA, 37°C for 5 minutes; HEPES buffer (pH 8.0); pNA measured at 405 nm
Method: (1) Inhibitory effects on human sputum elastase
A mixture of 0.5 ml of 0.2 mM HEPES buffer (pH 8.0), 0.2 ml of 2.5 M aqueous solution of sodium chloride, 0.1 ml of 1% polyethyleneglycol 6000, 0.13 ml of distilled water, 0.01 ml of a solution of test compound in dimethylsulfoxide (DMSO) and 0.05 ml of 0.8 U/ml human sputum elastase (HSE) was pre-incubated at 37°C, for 20 minutes. 0.01 ml of 5 mM MeO-Suc-Ala-Ala-Pro-Val-pNA in DMSO was added to the above mixture and the mixture was incubated at 37°C for 5 minutes. The reaction was terminated by 0.1 ml of 50% acetic acid and then p-nitroanilide (pNA) released was measured spectrophotometrically at 405 nm. Percent inhibition of a compound was calculated by the following equation. Inhibition (%) = [1 - {delta OD (test-blank) / delta OD (control-blank)}] × 100 [formula]

## CC(C)C(NC(=O)Cn1c(-c2ccccc2)ncc([N+](=O)[O-])c1=O)C(=O)c1nnc(C(C)(C)C)o1 (racemic) [Example 7(1), N-[(1RS)-1-(5-(t-butyl)-1,3,4-oxadiazol-2-ylcarbonyl)-2-methylpropyl]-2-[6-oxo-2-phenyl-5-nitro-1,6-dihydropyrimidin-1-yl]acetamide]
  IC50: 88 nM
